Experimental data from paper PMC10821035, “Silver and Copper Complexes with Ibuprofen and Caffeine—Preparation and Evaluation of Their Selected Biological Effects” (Molecules, 2024).
Where two headings read alike, the source gives them in different places.

Legend:
[1] = system: all tested bacterial strains; experiment: MIC by broth microdilution, all tested bacterial strains; type: cell-based
Procedure: (§1) The bacterial strains Bacillus subtilis ATCC 6637, Bacteroides fragilis ATCC 25285, Clostridium bifermentans ATCC 638, Escherichia coli ATCC 35218, Enterococcus faecalis ATCC 29212, Pseudomonas aeruginosa ATCC 27853, Staphylococcus aureus ATCC 6538, Staphylococcus aureus ATCC 25923, Staphylococcus aureus ATCC 29213, Staphylococcus aureus ATCC 43300, and Staphylococcus epidermidis ATCC 12228 were cultured in Mueller–Hinton medium (Oxoid, Basingstoke, UK) at 37 °C for 24 h.
(§2) The minimal inhibitory concentration (MIC) was determined by the broth microdilution method according to the standards of the Clinical and Laboratory Standards Institute (CLSI) manuals in 96-well plates. All stock solutions of the investigated complexes were prepared in DMSO with concentrations of 2 mg mL^−1.
(§3) The MIC was estimated as the lowest concentration of the complex inhibiting bacterial growth. As negative controls, samples without inoculum at each complex concentration were used, whereas the positive control contained the inoculum but not the investigated complexes. Each complex was tested at concentrations between 2.5 and 160 µg mL^−1. The first well contained the highest concentration, and further concentrations were achieved by serial dilution. The assay was performed in duplicate with three repetitions for each bacterial strain.

ovine COX-1 = molecular target: T1, ovine COX-1 (Ovis aries, UniProt P05979); experiment: COX (ovine/human) Inhibitor Screening Assay, COX-1; type: biochemical
T1 construct: purchased Cayman Chemicals
T1 sequence (P05979 25-600): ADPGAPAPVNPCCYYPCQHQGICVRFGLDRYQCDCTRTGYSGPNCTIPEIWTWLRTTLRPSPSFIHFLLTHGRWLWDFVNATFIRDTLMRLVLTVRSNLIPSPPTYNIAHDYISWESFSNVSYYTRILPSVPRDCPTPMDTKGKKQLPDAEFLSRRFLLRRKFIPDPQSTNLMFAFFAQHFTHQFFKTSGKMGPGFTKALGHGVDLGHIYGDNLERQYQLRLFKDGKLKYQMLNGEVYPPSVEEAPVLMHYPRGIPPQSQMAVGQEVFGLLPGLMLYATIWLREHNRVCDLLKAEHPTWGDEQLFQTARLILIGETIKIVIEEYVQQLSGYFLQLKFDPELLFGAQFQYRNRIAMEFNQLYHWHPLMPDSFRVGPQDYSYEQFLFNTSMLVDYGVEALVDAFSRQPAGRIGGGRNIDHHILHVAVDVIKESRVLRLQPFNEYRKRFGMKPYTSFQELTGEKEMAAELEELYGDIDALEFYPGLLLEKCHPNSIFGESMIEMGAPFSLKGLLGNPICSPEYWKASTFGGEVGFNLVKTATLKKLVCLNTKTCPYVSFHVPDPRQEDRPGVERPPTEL
Procedure: The ability of the obtained complexes to inhibit cyclooxygenase activity was measured using a COX (ovine/human) Inhibitor Screening Assay Kit (Cayman Chemicals, MI, USA) with ovine COX-1 and human recombinant COX-2. The amount of prostaglandin, dependent on the COX activity, after exposure to the tested complexes was calculated from the standard curve. […] The selectivity indices (SIs) were calculated according to the formula COX-1 IC50/COX-2 IC50.

CCD-18Co cells = experiment: XTT cytotoxicity/proliferation assay on CCD-18Co fibroblasts; type: cell-based, human; conditions: 24 h incubation, XTT test
Procedure: The cell line CCD-18Co (fibroblasts from the colon of a healthy human) was obtained from the American Type Cells Collections (Cat. No. ATCC-CRL-1459). The cells were cultured in Minimum Essential Medium Eagle (MEM) with Earle’s salts, L-glutamine, sodium bicarbonate, and phenol red, supplemented with 10% fetal bovine serum (FBS), 1% non-essential amino acids (NEAAs), and 1% penicillin/streptomycin solution (P/S), all purchased from Sigma-Aldrich (St. Louis, MO, USA). The incubation parameters were 37 ℃, 5% CO2, and 95% relative humidity. The cytotoxicity of the tested complexes (Ag-IBU, Ag-IBU-CAF, Cu-IBU, and Cu-IBU-CAF) was derived using two distinct parameters: (1) tetrazolium salt (XTT) reduction by mitochondrial succinate dehydrogenases using an XTT (Tetrazolium hydroxide) Kit; and (2) neutral red (NR) dye uptake and incorporation within lysosomes using an NR (Neutral Red) Kit. Both kits were produced by Xenometrix AG, Allschwil, Switzerland. The assays were carried out without any substantial changes to the test procedures provided by the manufacturer. The stock solutions of the tested compounds at 20 mg mL^−1 were prepared in DMSO. […] The cells were incubated for the next 3 h, gently mixed, and the absorbance was read at 480 nm with a reference wavelength of 690 nm using the multi-mode plate reader FLUOstar Omega (BMG Labtech, Ortenberg, Germany). […]

[2] = system: Staphylococcus aureus ATCC 29213; experiment: Disc diffusion test (Kirby–Bauer); type: cell-based; conditions: concentration according to MIC, 6 mm filter discs
Procedure: as §1
(§4) The antimicrobial sensibility assay was performed according to the Kirby–Bauer method using 6 mm filter discs. Mueller–Hinton agar (Oxoid) was poured onto Petri dishes (90 mm), and saturated filter discs at the concentration determined as the MIC were placed onto the agar surface after distributing bacteria on the agar. The Petri dishes were incubated at 37 °C for 24 h.

[3] = system: Escherichia coli ATCC 25218; experiment: Disc diffusion test (Kirby–Bauer); type: cell-based; conditions: concentration according to MIC, 6 mm filter discs
Procedure: as §1, §4

[4] = system: Pseudomonas aeruginosa ATCC 27853; experiment: Disc diffusion test (Kirby–Bauer); type: cell-based; conditions: concentration according to MIC, 6 mm filter discs
Procedure: as §1, §4

[5] = system: Staphylococcus aureus ATCC 43300; experiment: Disc diffusion test (Kirby–Bauer); type: cell-based; conditions: concentration according to MIC, 6 mm filter discs
Procedure: as §1, §4

[6] = system: Staphylococcus aureus ATCC 6538; experiment: Disc diffusion test (Kirby–Bauer); type: cell-based; conditions: concentration according to MIC, 6 mm filter discs
Procedure: as §1, §4

[7] = system: Staphylococcus epidermidis ATCC 12228; experiment: Disc diffusion test (Kirby–Bauer); type: cell-based; conditions: concentration according to MIC, 6 mm filter discs
Procedure: as §1, §4

[8] = system: Bacillus subtilis ATCC 6637; experiment: Disc diffusion test (Kirby–Bauer); type: cell-based; conditions: concentration according to MIC, 6 mm filter discs
Procedure: as §1, §4

[9] = system: Enterococcus faecalis ATCC 29212; experiment: Disc diffusion test (Kirby–Bauer); type: cell-based; conditions: concentration according to MIC, 6 mm filter discs
Procedure: as §1, §4

[10] = system: Bacteroides fragilis ATCC 25285; experiment: Disc diffusion test (Kirby–Bauer); type: cell-based; conditions: concentration according to MIC, 6 mm filter discs
Procedure: as §1, §4

[11] = system: Staphylococcus aureus ATCC 25923; experiment: Disc diffusion test (Kirby–Bauer); type: cell-based; conditions: concentration according to MIC, 6 mm filter discs
Procedure: as §1, §4

[12] = system: Staphylococcus aureus ATCC 29213; experiment: MIC by broth microdilution; type: cell-based
Procedure: as §1, §2, §3

[13] = system: Escherichia coli ATCC 25218; experiment: MIC by broth microdilution; type: cell-based
Procedure: as §1, §2, §3

[14] = system: Pseudomonas aeruginosa ATCC 27853; experiment: MIC by broth microdilution; type: cell-based
Procedure: as §1, §2, §3

[15] = system: Staphylococcus aureus ATCC 43300; experiment: MIC by broth microdilution; type: cell-based
Procedure: as §1, §2, §3

[16] = system: Staphylococcus aureus ATCC 6538; experiment: MIC by broth microdilution; type: cell-based
Procedure: as §1, §2, §3

[17] = system: Staphylococcus epidermidis ATCC 12228; experiment: MIC by broth microdilution; type: cell-based
Procedure: as §1, §2, §3

[18] = system: Bacillus subtilis ATCC 6637; experiment: MIC by broth microdilution; type: cell-based
Procedure: as §1, §2, §3

[19] = system: Enterococcus faecalis ATCC 29212; experiment: MIC by broth microdilution; type: cell-based
Procedure: as §1, §2, §3

[20] = system: Bacteroides fragilis ATCC 25285; experiment: MIC by broth microdilution; type: cell-based
Procedure: as §1, §2, §3

[21] = system: Staphylococcus aureus ATCC 25923; experiment: MIC by broth microdilution; type: cell-based
Procedure: as §1, §2, §3

SMILES	IC50 COX-1 (ovine COX-1)	24h-IC50 (CCD-18Co cells)	Inhibition Halo [2]	Inhibition Halo [3]	Inhibition Halo [4]	Inhibition Halo [5]	Inhibition Halo [6]	Inhibition Halo [7]	Inhibition Halo [8]	Inhibition Halo [9]	Inhibition Halo [10]	Inhibition Halo [11]	MIC [12]	MIC [13]	MIC [14]	MIC [15]	MIC [16]	MIC [17]	MIC [18]	MIC [19]	also measured
CC(C)Cc1ccc(C(C)C(=O)O)cc1 (racemic) [IBU, (RS)-2-(4-(2-methylpropyl)phenyl)propanoic acid, reference compound]																					MIC ([1]; 2.5–160 µg mL^−1, read-out: MIC): > 200 µg/mL
CC(C)Cc1ccc(C(C)C(=O)[O][Ag])cc1.Cn1c(=O)c2c(ncn2C)n(C)c1=O (centres unmarked) [Ag-IBU-CAF]	62.5 µg/mL	33.35 µg/mL	12 mm	17 mm	15 mm	15 mm	15 mm	11 mm	13 mm	16 mm	10 mm	16 mm	5 µg/mL	5 µg/mL	10 µg/mL	10 µg/mL	5 µg/mL	10 µg/mL	10 µg/mL	5 µg/mL	MIC [20]: 20 µg/mL; MIC [21]: 5 µg/mL; MIC ([1]; 2.5–160 µg mL^−1): ≤ 20 µg/mL
CC(C)Cc1ccc(C(C)C(=O)[O][Ag])cc1 (centres unmarked) [Ag-IBU]	64.6 µg/mL	25.10 µg/mL	7 mm	9 mm	10 mm	13 mm	14 mm	10 mm	11 mm	14 mm	7 mm	14 mm	5 µg/mL	10 µg/mL	10 µg/mL	20 µg/mL	10 µg/mL	20 µg/mL	10 µg/mL	10 µg/mL	MIC [20]: 20 µg/mL; MIC [21]: 10 µg/mL; MIC ([1]; 2.5–160 µg mL^−1): ≤ 20 µg/mL
